The target of this assay is TRPM4 (Homo sapiens, UniProt Q8TD43). The assay can be described thus: whole-cell patch clamp of endogenous TRPM4 currents in HCT116 cells. It counts as cell-based. A general note: The patch-clamp technique gives a direct electrical read-out from membranes.

The structures appear in SMILES notation.

Chain of TRPM4 (Q8TD43 whole entry): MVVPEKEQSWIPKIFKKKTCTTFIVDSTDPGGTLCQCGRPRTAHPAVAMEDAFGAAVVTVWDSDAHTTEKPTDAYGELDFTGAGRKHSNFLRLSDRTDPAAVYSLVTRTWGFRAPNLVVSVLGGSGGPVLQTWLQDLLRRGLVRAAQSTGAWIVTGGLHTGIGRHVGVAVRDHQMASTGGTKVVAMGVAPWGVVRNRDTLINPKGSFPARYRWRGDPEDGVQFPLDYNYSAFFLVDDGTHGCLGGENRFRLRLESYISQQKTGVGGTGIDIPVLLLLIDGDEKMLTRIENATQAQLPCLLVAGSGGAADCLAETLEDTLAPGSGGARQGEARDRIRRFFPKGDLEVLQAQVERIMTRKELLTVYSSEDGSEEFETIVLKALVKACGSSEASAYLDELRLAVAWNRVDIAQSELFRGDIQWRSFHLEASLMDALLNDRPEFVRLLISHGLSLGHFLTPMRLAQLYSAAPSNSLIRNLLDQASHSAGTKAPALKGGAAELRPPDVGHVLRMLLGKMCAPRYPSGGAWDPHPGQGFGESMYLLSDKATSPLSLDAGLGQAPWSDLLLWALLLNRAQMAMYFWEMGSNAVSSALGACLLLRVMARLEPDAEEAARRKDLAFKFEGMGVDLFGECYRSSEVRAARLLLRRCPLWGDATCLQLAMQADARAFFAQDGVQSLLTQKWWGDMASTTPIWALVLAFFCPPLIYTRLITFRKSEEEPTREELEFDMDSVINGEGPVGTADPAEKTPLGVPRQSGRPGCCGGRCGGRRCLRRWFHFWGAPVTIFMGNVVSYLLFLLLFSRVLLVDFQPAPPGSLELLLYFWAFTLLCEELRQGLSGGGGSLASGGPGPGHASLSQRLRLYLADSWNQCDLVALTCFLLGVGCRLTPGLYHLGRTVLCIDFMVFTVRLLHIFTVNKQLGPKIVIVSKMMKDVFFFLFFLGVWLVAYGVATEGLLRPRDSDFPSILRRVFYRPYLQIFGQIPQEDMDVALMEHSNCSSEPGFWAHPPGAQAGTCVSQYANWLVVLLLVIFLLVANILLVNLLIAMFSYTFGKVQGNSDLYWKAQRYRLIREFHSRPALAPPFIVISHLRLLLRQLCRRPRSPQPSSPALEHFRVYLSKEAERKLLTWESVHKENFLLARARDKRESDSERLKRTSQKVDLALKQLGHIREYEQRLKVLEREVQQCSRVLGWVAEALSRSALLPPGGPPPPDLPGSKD

`Cc1cc(Cl)ccc1OC(C)C(=O)Nc1cc(Cl)ccc1C(=O)O` (stereo not shown) [LBA, 4-chloro-2-(2-(4-chloro-2-methylphenoxy)propanamido) benzoic acid]: the IC50 (as a rule, the concentration needed to halve the response being measured) came out at 1840 nM.

For the origin of these results see article PMC8582472, “Investigation of Novel Small Molecular TRPM4 Inhibitors in Colorectal Cancer Cells” (Cancers, 2021).
